# Experiments:
# Assay in all cases: Test B preemergence/postemergence greenhouse plant response rating 0 to 10
# Details in all cases: 0 to 10 scale
# lambsquarters = type: in vivo, Chenopodium album
# Method in brief: (§1)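 Postemergence treatment of plants two to eighteen cm tall ran alongside preemergence treatment of planted seed, each using compound in a non-phytotoxic solvent.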
# soybean = type: in vivo, Glycine max
# Method in brief: as §1
# cheatgrass = type: in vivo, Bromus secalinus
# Method in brief: as §1
# sugar beet = type: in vivo, Beta vulgaris
# Method in brief: as §1
# wheat = type: in vivo, Triticum aestivum
# Method in brief: as §1
# sorghum = type: in vivo, Sorghum bicolor
# Method in brief: as §1
# wild buckwheat = type: in vivo, Polygonum convolvulus
# Method in brief: as §1
# barnyardgrass = type: in vivo, Echinochloa crus-galli
# Method in brief: as §1
# cocklebur = type: in vivo, Xanthium pensylvanicum
# Method in brief: as §1
# chickweed = type: in vivo, Stellaria media
# Method in brief: as §1
# crabgrass = type: in vivo, Digitaria spp.
# Method in brief: as §1
# barley = type: in vivo, Hordeum vulgare
# Method in brief: as §1
# corn = type: in vivo, Zea mays
# Method in brief: as §1
# blackgrass = type: in vivo, Alopecurus myosuroides
# Method in brief: as §1
# giant foxtail = type: in vivo, Setaria faberii
# Method in brief: as §1
# morningglory = type: in vivo, Ipomoea hederacea
# Method in brief: as §1
# velvetleaf = type: in vivo, Abutilon theophrasti
# Method in brief: as §1
# rape = type: in vivo, Brassica napus
# Method in brief: as §1
# purple nutsedge = type: in vivo, Cyperus rotundus
# Method in brief: as §1
# cotton = type: in vivo, Gossypium hirsutum
# Method in brief: as §1
# rice = type: in vivo, Oryza sativa
# Method in brief: as §1
# bedstraw = type: in vivo, Galium aparine
# Method in brief: as §1
# wild oat = type: in vivo, Avena fatua
# Method in brief: as §1
smiles,measurement,setting,value
C#CCOC(=O)COc1cc(-c2nn3c(c2Cl)CCCC3)c(F)cc1Cl [Compound 61],"Plant response rating, Lambsquarter","lambsquarters; POSTEMERGENCE, Rate 10 g/ha",9
same,"Plant response rating, Lambsquarter","lambsquarters; POSTEMERGENCE, Rate 50 g/ha",9
same,"Plant response rating, Lambsquarter","lambsquarters; PREEMERGENCE, Rate 50 g/ha",9
same,"Plant response rating, Soybean","soybean; POSTEMERGENCE, Rate 10 g/ha",2
same,"Plant response rating, Soybean","soybean; POSTEMERGENCE, Rate 50 g/ha",3
same,"Plant response rating, Soybean","soybean; PREEMERGENCE, Rate 50 g/ha",0
same,"Plant response rating, Cheatgrass","cheatgrass; POSTEMERGENCE, Rate 10 g/ha",2
same,"Plant response rating, Cheatgrass","cheatgrass; POSTEMERGENCE, Rate 50 g/ha",3
same,"Plant response rating, Cheatgrass","cheatgrass; PREEMERGENCE, Rate 10 g/ha",0
same,"Plant response rating, Cheatgrass","cheatgrass; PREEMERGENCE, Rate 50 g/ha",2
same,"Plant response rating, Sugar beet","sugar beet; POSTEMERGENCE, Rate 10 g/ha",10
same,"Plant response rating, Sugar beet","sugar beet; POSTEMERGENCE, Rate 50 g/ha",10
same,"Plant response rating, Sugar beet","sugar beet; PREEMERGENCE, Rate 50 g/ha",10
same,"Plant response rating, Wheat","wheat; POSTEMERGENCE, Rate 10 g/ha",2
same,"Plant response rating, Wheat","wheat; POSTEMERGENCE, Rate 50 g/ha",3
same,"Plant response rating, Wheat","wheat; PREEMERGENCE, Rate 50 g/ha",0
same,"Plant response rating, Sorghum","sorghum; POSTEMERGENCE, Rate 10 g/ha",2
same,"Plant response rating, Sorghum","sorghum; POSTEMERGENCE, Rate 50 g/ha",3
same,"Plant response rating, Sorghum","sorghum; PREEMERGENCE, Rate 50 g/ha",0
same,"Plant response rating, Wild buckwheat","wild buckwheat; POSTEMERGENCE, Rate 10 g/ha",3
same,"Plant response rating, Wild buckwheat","wild buckwheat; POSTEMERGENCE, Rate 50 g/ha",9
same,"Plant response rating, Wild buckwheat","wild buckwheat; PREEMERGENCE, Rate 50 g/ha",0
same,"Plant response rating, Barnyardgrass","barnyardgrass; POSTEMERGENCE, Rate 10 g/ha",2
same,"Plant response rating, Barnyardgrass","barnyardgrass; POSTEMERGENCE, Rate 50 g/ha",2
same,"Plant response rating, Barnyardgrass","barnyardgrass; PREEMERGENCE, Rate 10 g/ha",0
same,"Plant response rating, Barnyardgrass","barnyardgrass; PREEMERGENCE, Rate 50 g/ha",0
same,"Plant response rating, Cocklebur","cocklebur; POSTEMERGENCE, Rate 10 g/ha",4
same,"Plant response rating, Cocklebur","cocklebur; POSTEMERGENCE, Rate 50 g/ha",8
same,"Plant response rating, Cocklebur","cocklebur; PREEMERGENCE, Rate 10 g/ha",0
same,"Plant response rating, Cocklebur","cocklebur; PREEMERGENCE, Rate 50 g/ha",0
same,"Plant response rating, Chickweed","chickweed; POSTEMERGENCE, Rate 10 g/ha",2
same,"Plant response rating, Chickweed","chickweed; POSTEMERGENCE, Rate 50 g/ha",2
same,"Plant response rating, Chickweed","chickweed; PREEMERGENCE, Rate 50 g/ha",3
same,"Plant response rating, Crabgrass","crabgrass; POSTEMERGENCE, Rate 10 g/ha",2
same,"Plant response rating, Crabgrass","crabgrass; POSTEMERGENCE, Rate 50 g/ha",2
same,"Plant response rating, Crabgrass","crabgrass; PREEMERGENCE, Rate 10 g/ha",0
same,"Plant response rating, Crabgrass","crabgrass; PREEMERGENCE, Rate 50 g/ha",0
same,"Plant response rating, Barley","barley; POSTEMERGENCE, Rate 10 g/ha",1
same,"Plant response rating, Barley","barley; POSTEMERGENCE, Rate 50 g/ha",2
same,"Plant response rating, Barley","barley; PREEMERGENCE, Rate 10 g/ha",0
same,"Plant response rating, Barley","barley; PREEMERGENCE, Rate 50 g/ha",0
same,"Plant response rating, Corn","corn; POSTEMERGENCE, Rate 10 g/ha",3
same,"Plant response rating, Corn","corn; POSTEMERGENCE, Rate 50 g/ha",5
same,"Plant response rating, Corn","corn; PREEMERGENCE, Rate 50 g/ha",0
same,"Plant response rating, Blackgrass","blackgrass; POSTEMERGENCE, Rate 10 g/ha",2
same,"Plant response rating, Blackgrass","blackgrass; POSTEMERGENCE, Rate 50 g/ha",3
same,"Plant response rating, Blackgrass","blackgrass; PREEMERGENCE, Rate 10 g/ha",0
same,"Plant response rating, Blackgrass","blackgrass; PREEMERGENCE, Rate 50 g/ha",2
same,"Plant response rating, Giant foxtail","giant foxtail; POSTEMERGENCE, Rate 10 g/ha",2
same,"Plant response rating, Giant foxtail","giant foxtail; POSTEMERGENCE, Rate 50 g/ha",2
same,"Plant response rating, Giant foxtail","giant foxtail; PREEMERGENCE, Rate 10 g/ha",0
same,"Plant response rating, Giant foxtail","giant foxtail; PREEMERGENCE, Rate 50 g/ha",0
same,"Plant response rating, Morningglory","morningglory; POSTEMERGENCE, Rate 10 g/ha",7
same,"Plant response rating, Morningglory","morningglory; POSTEMERGENCE, Rate 50 g/ha",10
same,"Plant response rating, Morningglory","morningglory; PREEMERGENCE, Rate 50 g/ha",3
same,"Plant response rating, Velvetleaf","velvetleaf; POSTEMERGENCE, Rate 10 g/ha",2
same,"Plant response rating, Velvetleaf","velvetleaf; POSTEMERGENCE, Rate 50 g/ha",10
same,"Plant response rating, Velvetleaf","velvetleaf; PREEMERGENCE, Rate 50 g/ha",10
same,"Plant response rating, Rape","rape; POSTEMERGENCE, Rate 10 g/ha",1
same,"Plant response rating, Rape","rape; POSTEMERGENCE, Rate 50 g/ha",8
same,"Plant response rating, Rape","rape; PREEMERGENCE, Rate 50 g/ha",4
same,"Plant response rating, Nutsedge","purple nutsedge; POSTEMERGENCE, Rate 10 g/ha",0
same,"Plant response rating, Nutsedge","purple nutsedge; POSTEMERGENCE, Rate 50 g/ha",2
same,"Plant response rating, Nutsedge","purple nutsedge; PREEMERGENCE, Rate 50 g/ha",10
same,"Plant response rating, Cotton","cotton; POSTEMERGENCE, Rate 10 g/ha",9
same,"Plant response rating, Cotton","cotton; POSTEMERGENCE, Rate 50 g/ha",10
same,"Plant response rating, Cotton","cotton; PREEMERGENCE, Rate 10 g/ha",0
same,"Plant response rating, Cotton","cotton; PREEMERGENCE, Rate 50 g/ha",0
same,"Plant response rating, Rice","rice; POSTEMERGENCE, Rate 10 g/ha",2
same,"Plant response rating, Rice","rice; POSTEMERGENCE, Rate 50 g/ha",4
same,"Plant response rating, Rice","rice; PREEMERGENCE, Rate 50 g/ha",0
same,"Plant response rating, Bedstraw","bedstraw; POSTEMERGENCE, Rate 10 g/ha",5
same,"Plant response rating, Bedstraw","bedstraw; POSTEMERGENCE, Rate 50 g/ha",9
same,"Plant response rating, Bedstraw","bedstraw; PREEMERGENCE, Rate 10 g/ha",0
same,"Plant response rating, Bedstraw","bedstraw; PREEMERGENCE, Rate 50 g/ha",5
same,"Plant response rating, Wild oat","wild oat; POSTEMERGENCE, Rate 10 g/ha",1
same,"Plant response rating, Wild oat","wild oat; POSTEMERGENCE, Rate 50 g/ha",2
same,"Plant response rating, Wild oat","wild oat; PREEMERGENCE, Rate 50 g/ha",2

# Reference: patent US6358885B1, “Substituted phenylheterocyclic herbicides” (Mississippi State University, priority 1992, dated 2002)
